# Laboratory results: PubChem BioAssay (NCI)
#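 These data come from cells grown in 96-well plates and exposed to compound for 48 hours at five concentrations. At the GI50, growth is halved. TGI marks complete inhibition of growth.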
# Legend:
# Assay in all cases: NCI tumour cell line growth inhibition, 48 h
# 786-0 renal = system: 786-0 renal
# A498 renal = system: A498 renal
# A549 NSCLC = system: A549 NSCLC
# ACHN renal = system: ACHN renal
# BT-549 breast = system: BT-549 breast
# CAKI-1 renal = system: CAKI-1 renal
# CCRF-CEM leukemia = system: CCRF-CEM leukemia
# COLO 205 colon = system: COLO 205 colon
# DU-145 prostate = system: DU-145 prostate
# EKVX NSCLC = system: EKVX NSCLC
# HCC-2998 colon = system: HCC-2998 colon
# HCT-116 colon = system: HCT-116 colon
# HCT-15 colon = system: HCT-15 colon
# HL-60(TB) leukemia = system: HL-60(TB) leukemia
# HOP-62 NSCLC = system: HOP-62 NSCLC
# HOP-92 NSCLC = system: HOP-92 NSCLC
# HS 578T breast = system: HS 578T breast
# HT29 colon = system: HT29 colon
# IGROV1 ovarian = system: IGROV1 ovarian
# K-562 leukemia = system: K-562 leukemia
# KM12 colon = system: KM12 colon
# LOX IMVI melanoma = system: LOX IMVI melanoma
# M14 melanoma = system: M14 melanoma
# MALME-3M melanoma = system: MALME-3M melanoma
# MCF7 breast = system: MCF7 breast
# MDA-MB-231 breast = system: MDA-MB-231 breast
# MDA-MB-435 = system: MDA-MB-435
# MOLT-4 leukemia = system: MOLT-4 leukemia
# NCI-H226 lung = system: NCI-H226 lung
# NCI-H23 lung = system: NCI-H23 lung
# NCI-H460 lung = system: NCI-H460 lung
# NCI-H522 lung = system: NCI-H522 lung
# NCI/ADR-RES ovarian = system: NCI/ADR-RES ovarian
# OVCAR-4 ovarian = system: OVCAR-4 ovarian
# OVCAR-5 ovarian = system: OVCAR-5 ovarian
# OVCAR-8 ovarian = system: OVCAR-8 ovarian
# PC-3 prostate = system: PC-3 prostate
# RPMI-8226 leukemia = system: RPMI-8226 leukemia
# RXF 393 renal = system: RXF 393 renal
# SF-268 CNS = system: SF-268 CNS
# SF-295 CNS = system: SF-295 CNS
# SF-539 CNS = system: SF-539 CNS
# SK-MEL-2 melanoma = system: SK-MEL-2 melanoma
# SK-MEL-28 melanoma = system: SK-MEL-28 melanoma
# SK-MEL-5 melanoma = system: SK-MEL-5 melanoma
# SK-OV-3 ovarian = system: SK-OV-3 ovarian
# SN12C renal = system: SN12C renal
# SNB-19 CNS = system: SNB-19 CNS
# SNB-75 CNS = system: SNB-75 CNS
# SR leukemia = system: SR leukemia
# SW-620 colon = system: SW-620 colon
# T-47D breast = system: T-47D breast
# TK-10 renal = system: TK-10 renal
# U251 CNS = system: U251 CNS
# UACC-257 melanoma = system: UACC-257 melanoma
# UACC-62 melanoma = system: UACC-62 melanoma
# UO-31 renal = system: UO-31 renal
compound,measurement,setting,value
CSc1ccc(/C(=N/N=C(N)N)c2ccccc2)cc1,GI50,786-0 renal,924 nM
same,TGI,786-0 renal,15800 nM
same,GI50,A498 renal,319 nM
same,TGI,A498 renal,1660 nM
same,GI50,A549 NSCLC,984 nM
same,TGI,A549 NSCLC,14200 nM
same,GI50,ACHN renal,695 nM
same,TGI,ACHN renal,12600 nM
same,GI50,BT-549 breast,650 nM
same,TGI,BT-549 breast,3180 nM
same,GI50,CAKI-1 renal,423 nM
same,TGI,CAKI-1 renal,10900 nM
same,GI50,CCRF-CEM leukemia,357 nM
same,TGI,CCRF-CEM leukemia,19200 nM
same,GI50,COLO 205 colon,235 nM
same,TGI,COLO 205 colon,549 nM
same,GI50,DU-145 prostate,471 nM
same,TGI,DU-145 prostate,13300 nM
same,GI50,EKVX NSCLC,779 nM
same,TGI,EKVX NSCLC,18100 nM
same,GI50,HCC-2998 colon,371 nM
same,TGI,HCC-2998 colon,1570 nM
same,GI50,HCT-116 colon,330 nM
same,TGI,HCT-116 colon,11400 nM
same,GI50,HCT-15 colon,377 nM
same,TGI,HCT-15 colon,12000 nM
same,GI50,HL-60(TB) leukemia,274 nM
same,TGI,HL-60(TB) leukemia,883 nM
same,GI50,HOP-62 NSCLC,481 nM
same,TGI,HOP-62 NSCLC,13000 nM
same,GI50,HOP-92 NSCLC,409 nM
same,TGI,HOP-92 NSCLC,5320 nM
same,GI50,HS 578T breast,359 nM
same,TGI,HS 578T breast,12900 nM
same,GI50,HT29 colon,301 nM
same,TGI,HT29 colon,2880 nM
same,GI50,IGROV1 ovarian,563 nM
same,TGI,IGROV1 ovarian,12200 nM
same,GI50,K-562 leukemia,314 nM
same,TGI,K-562 leukemia,11500 nM
same,GI50,KM12 colon,451 nM
same,TGI,KM12 colon,14200 nM
same,GI50,LOX IMVI melanoma,520 nM
same,TGI,LOX IMVI melanoma,8780 nM
same,GI50,M14 melanoma,308 nM
same,TGI,M14 melanoma,1420 nM
same,GI50,MALME-3M melanoma,719 nM
same,TGI,MALME-3M melanoma,13500 nM
same,GI50,MCF7 breast,357 nM
same,TGI,MCF7 breast,9460 nM
same,GI50,MDA-MB-231 breast,498 nM
same,TGI,MDA-MB-231 breast,11800 nM
same,GI50,MDA-MB-435,207 nM
same,TGI,MDA-MB-435,478 nM
same,GI50,MOLT-4 leukemia,462 nM
same,TGI,MOLT-4 leukemia,13400 nM
same,GI50,NCI-H226 lung,848 nM
same,TGI,NCI-H226 lung,18600 nM
same,GI50,NCI-H23 lung,591 nM
same,TGI,NCI-H23 lung,14900 nM
same,GI50,NCI-H460 lung,361 nM
same,TGI,NCI-H460 lung,10700 nM
same,GI50,NCI-H522 lung,267 nM
same,TGI,NCI-H522 lung,996 nM
same,GI50,NCI/ADR-RES ovarian,1870 nM
same,TGI,NCI/ADR-RES ovarian,11000 nM
same,GI50,OVCAR-4 ovarian,5290 nM
same,TGI,OVCAR-4 ovarian,27200 nM
same,GI50,OVCAR-5 ovarian,571 nM
same,TGI,OVCAR-5 ovarian,15400 nM
same,GI50,OVCAR-8 ovarian,422 nM
same,TGI,OVCAR-8 ovarian,11200 nM
same,GI50,PC-3 prostate,383 nM
same,TGI,PC-3 prostate,10900 nM
same,GI50,RPMI-8226 leukemia,391 nM
same,TGI,RPMI-8226 leukemia,5460 nM
same,GI50,RXF 393 renal,282 nM
same,TGI,RXF 393 renal,781 nM
same,GI50,SF-268 CNS,1290 nM
same,TGI,SF-268 CNS,16100 nM
same,GI50,SF-295 CNS,350 nM
same,TGI,SF-295 CNS,11500 nM
same,GI50,SF-539 CNS,301 nM
same,TGI,SF-539 CNS,931 nM
same,GI50,SK-MEL-2 melanoma,391 nM
same,TGI,SK-MEL-2 melanoma,12700 nM
same,GI50,SK-MEL-28 melanoma,1070 nM
same,TGI,SK-MEL-28 melanoma,20000 nM
same,GI50,SK-MEL-5 melanoma,609 nM
same,TGI,SK-MEL-5 melanoma,2850 nM
same,GI50,SK-OV-3 ovarian,605 nM
same,TGI,SK-OV-3 ovarian,15100 nM
same,GI50,SN12C renal,536 nM
same,TGI,SN12C renal,12500 nM
same,GI50,SNB-19 CNS,439 nM
same,TGI,SNB-19 CNS,14000 nM
same,GI50,SNB-75 CNS,310 nM
same,TGI,SNB-75 CNS,3270 nM
same,GI50,SR leukemia,247 nM
same,TGI,SR leukemia,2580 nM
same,GI50,SW-620 colon,435 nM
same,TGI,SW-620 colon,15600 nM
same,GI50,T-47D breast,535 nM
same,TGI,T-47D breast,15100 nM
same,GI50,TK-10 renal,4430 nM
same,TGI,TK-10 renal,20400 nM
same,GI50,U251 CNS,393 nM
same,TGI,U251 CNS,11300 nM
same,GI50,UACC-257 melanoma,1080 nM
same,TGI,UACC-257 melanoma,11800 nM
same,GI50,UACC-62 melanoma,473 nM
same,TGI,UACC-62 melanoma,15000 nM
same,GI50,UO-31 renal,747 nM
same,TGI,UO-31 renal,12600 nM
